Laboratory results taken from patent US20240150377A1, “MODULATORS OF CYSTIC FIBROSIS TRANSMEMBRANE CONDUCTANCE REGULATOR” (VERTEX PHARMACEUTICALS INCORPORATED, priority 2020, published 2024).
Read-outs that look alike come from different tables or passages of the source.

How the values were obtained:
CFTR [1] = target: T1, CFTR (Homo sapiens, UniProt P13569, DEL508-508); assay: HBE assay: Ussing chamber assay of CFTR-mediated short-circuit currents; format: cell-based; conditions: read-out: HBE Activity at 10 μM (%)
T1 construct: endogenous in cells; host or cells: primary human bronchial epithelial cells from CF subjects (F508del/MF-HBE), differentiated at air-liquid interface
Summary of the method: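 CFTR-mediated Isc (μA/cm²) equals the peak response to apical 20 μM forskolin minus the residual after a 20 μM each BPO/GlyH-101/CFTR inhibitor 172 cocktail, recorded in Ussing chambers at Vhold 0 mV, 37 °C, pH 7.4, with 30 μM apical amiloride. Cells were F508del/MF HBE cultures preincubated 18-24 h with corrector (concentration range or 10 μM) plus 1 μM ivacaftor in 20% human serum.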

CFTR [2] = target: T1, CFTR; assay: HBE2 assay: Ussing chamber assay of CFTR-mediated short-circuit currents; format: cell-based; conditions: F508del/MF-HBE cells, 18-24 hours, 20% human serum; for Emax: read-out: HBE2 Max activity (%)
Summary of the method: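 F508del/MF-HBE cultured >14 days at air-liquid interface, mounted in Ussing chambers; transepithelial short-circuit current recorded under voltage clamp (Vhold=0 mV) at 37 °C. CFTR-mediated ISC (μA/cm^2) taken as peak forskolin response relative to steady-state current after inhibition; corrector activity assessed this way.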

[3] = 3 μM corrector, with 44 nM potentiator

T1 sequence (P13569 with tags, fused parts or gaps DEL508-508): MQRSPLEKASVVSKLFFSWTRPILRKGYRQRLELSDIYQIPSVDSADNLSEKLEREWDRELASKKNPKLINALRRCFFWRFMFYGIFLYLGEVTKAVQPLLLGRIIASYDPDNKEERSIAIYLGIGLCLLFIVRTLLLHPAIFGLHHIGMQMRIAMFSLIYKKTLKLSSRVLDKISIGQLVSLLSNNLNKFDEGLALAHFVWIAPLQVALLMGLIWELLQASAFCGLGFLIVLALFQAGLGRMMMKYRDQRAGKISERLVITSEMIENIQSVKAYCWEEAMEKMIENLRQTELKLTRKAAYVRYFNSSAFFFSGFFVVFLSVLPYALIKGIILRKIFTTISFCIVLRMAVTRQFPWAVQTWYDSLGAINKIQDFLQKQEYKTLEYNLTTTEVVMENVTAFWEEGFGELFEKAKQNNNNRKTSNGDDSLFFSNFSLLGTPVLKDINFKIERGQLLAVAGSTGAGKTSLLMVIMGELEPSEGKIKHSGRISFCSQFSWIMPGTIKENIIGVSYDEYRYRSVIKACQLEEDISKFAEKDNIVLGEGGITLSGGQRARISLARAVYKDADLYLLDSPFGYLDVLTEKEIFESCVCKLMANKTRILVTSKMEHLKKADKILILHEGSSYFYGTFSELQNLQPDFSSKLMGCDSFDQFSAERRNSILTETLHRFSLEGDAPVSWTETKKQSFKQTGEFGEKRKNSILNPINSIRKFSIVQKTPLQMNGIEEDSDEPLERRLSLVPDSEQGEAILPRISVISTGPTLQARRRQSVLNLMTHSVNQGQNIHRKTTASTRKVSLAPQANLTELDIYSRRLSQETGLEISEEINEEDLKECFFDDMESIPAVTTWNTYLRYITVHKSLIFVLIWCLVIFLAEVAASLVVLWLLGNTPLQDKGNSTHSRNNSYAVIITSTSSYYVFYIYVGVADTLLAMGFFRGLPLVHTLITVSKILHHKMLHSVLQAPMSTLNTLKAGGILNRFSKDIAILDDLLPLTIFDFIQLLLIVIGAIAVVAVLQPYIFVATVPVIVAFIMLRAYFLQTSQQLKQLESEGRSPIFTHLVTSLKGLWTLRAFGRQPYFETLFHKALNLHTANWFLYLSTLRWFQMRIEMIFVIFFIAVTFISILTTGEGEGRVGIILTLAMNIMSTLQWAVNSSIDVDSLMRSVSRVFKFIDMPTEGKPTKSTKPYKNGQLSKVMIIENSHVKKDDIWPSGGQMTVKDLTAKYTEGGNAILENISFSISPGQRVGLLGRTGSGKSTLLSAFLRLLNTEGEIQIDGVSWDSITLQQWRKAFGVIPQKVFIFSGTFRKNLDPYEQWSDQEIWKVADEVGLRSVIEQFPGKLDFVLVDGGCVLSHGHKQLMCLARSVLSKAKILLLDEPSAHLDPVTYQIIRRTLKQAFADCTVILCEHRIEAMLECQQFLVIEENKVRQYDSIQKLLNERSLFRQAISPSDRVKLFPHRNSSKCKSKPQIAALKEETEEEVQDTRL

SMILES | Emax (CFTR [2]; with 44 nM potentiator) [%] | HBE2 Activity at 3 μM (%) (CFTR [2]; 3 μM, with 44 nM potentiator) | HBE2 Activity at 3 μM (%) (CFTR [2]; [3]) | further results
Cc1cccc(C)c1-c1cc2nc(n1)NS(=O)(=O)c1cccc(c1)C(=O)N(Cc1cncc(N3CC[C@H]3C)n1)[C@H](CC(C)(C)C)CO2 [Compound 1512] | > 60 |  |  | activation at 10 µM (CFTR [1]): > 60%; EC50 (CFTR [2]; with 44 nM potentiator): < 1 µM
CCN(c1cncc(CN2C(=O)c3cccc(c3)S(=O)(=O)Nc3nc(cc(-c4c(C)cccc4C)n3)OC[C@H]2CC(C)(C)C)n1)C1CCC1 [Compound 1579] | > 60 | +++ (+++ is >60+) |  | EC50 (CFTR [2]; with 44 nM potentiator): < 1 µM
Cc1cccc(C)c1-c1cc2nc(n1)NS(=O)(=O)c1cccc(c1)C(=O)N(Cc1cncc(N3[C@H](C)CC[C@@H]3C)n1)[C@H](CCC(C)(C)C)CO2 [Compound 1917] |  |  | +++ (+++ is >60+) | 
Cc1cccc(C)c1-c1cc2nc(n1)NS(=O)(=O)c1cccc(c1)C(=O)N(Cc1cncc(N(C)CC3CCC3)n1)[C@H](CC(C)(C)C)CO2 [Compound 1614] |  | +++ (+++ is >60+) |  | 
Cc1cccc(C)c1-c1cc2nc(n1)NS(=O)(=O)c1cccc(c1)C(=O)N(Cc1cc(NC(=O)OC(C)(C)C)cc(N(C)C3CCC3)n1)[C@H](CC(C)(C)C)CO2 [Compound 1929] |  |  | +++ (+++ is >60+) | 
CCCOc1cnc(CN2C(=O)c3cccc(c3)S(=O)(=O)Nc3nc(cc(-c4c(C)cccc4C)n3)OC[C@H]2CC2CCC2)nc1 [Compound 1522] | > 60 | +++ (+++ is >60+) |  | activation at 10 µM (CFTR [1]; HBE assay, 10 μM): > 60%; EC50 (CFTR [2]; with 44 nM potentiator): < 1 µM
CCN(C)c1cncc(CN2C(=O)c3cccc(c3)S(=O)(=O)Nc3nc(cc(-c4c(C)cccc4C)n3)OC[C@H]2CC(C)(C)C)n1 [Compound 1695] |  | +++ (+++ is >60+) |  | 
COC(=O)N1CC2CCN(c3cncc(CN4C(=O)c5cccc(c5)S(=O)(=O)Nc5nc(cc(-c6c(C)cccc6C)n5)OC[C@H]4CC(C)(C)C)n3)C2C1 (stereo partly drawn) [Compound 1681] |  | +++ (+++ is >60+) |  | 
CC[C@@H](C)N(C)c1cncc(CN2C(=O)c3cccc(c3)S(=O)(=O)Nc3nc(cc(-c4c(C)cccc4C)n3)OC[C@H]2CC(C)(C)C)n1 (stereo in doubt) [Compound 1672] | > 60 | +++ (+++ is >60+) |  | EC50 (CFTR [2]; with 44 nM potentiator): < 1 µM

More lines, main results first:

Emax (CFTR [2]; with 44 nM potentiator) [%] | HBE2 Activity at 3 μM (%) (CFTR [2]; 3 μM, with 44 nM potentiator) | HBE2 Activity at 3 μM (%) (CFTR [2]; [3]) | SMILES | further results
 |  | +++ (+++ is >60+) | Cc1cccc(C)c1-c1cc2nc(n1)NS(=O)(=O)c1cccc(c1)C(=O)N(Cc1cncc(N3CCC[C@H]3C)n1)[C@H](CC1(C)CCC1)CO2 [Compound 1743] | 
 | +++ (+++ is >60+) |  | Cc1cccc(C)c1-c1cc2nc(n1)NS(=O)(=O)c1cccc(c1)C(=O)N(Cc1cncc(N3CCCC3=O)n1)[C@H](CC(C)(C)C)CO2 [Compound 1652] | 
 |  | +++ (+++ is >60+) | Cc1cccc(C)c1-c1cc2nc(n1)NS(=O)(=O)c1cccc(c1)C(=O)N(Cc1cccc(N3CCC[C@H]3C)n1)[C@H](CC1(C)CCC1)CO2 [Compound 1777] | 
> 60 |  |  | Cc1cccc(C)c1-c1cc2nc(n1)NS(=O)(=O)c1cccc(c1)C(=O)N(Cc1cncc(N3CCC34CCC4)n1)[C@H](CC(C)(C)C)CO2 [Compound 1604] | EC50 (CFTR [2]; with 44 nM potentiator): < 1 µM
> 60 |  | +++ (+++ is >60+) | Cc1cccc(C)c1-c1cc2nc(n1)NS(=O)(=O)c1cccc(c1)C(=O)N(Cc1cncc(N3CCC[C@H]3C(C)C)n1)[C@H](CCC1CC1)CO2 [Compound 1720] | EC50 (CFTR [2]; corrector at a range of concentrations with 44 nM potentiator): < 1 µM
 |  | +++ (+++ is >60+) | Cc1cccc(C)c1-c1cc2nc(n1)NS(=O)(=O)c1cccc(c1)C(=O)N(Cc1cncc(N3CCCC4CCC43)n1)[C@H](CC1(C)CCC1)CO2 (stereo partly drawn) [Compound 1794] | 
 |  | +++ (+++ is >60+) | Cc1cccc(C)c1-c1cc2nc(n1)NS(=O)(=O)c1cccc(c1)C(=O)N(Cc1cncc(N3[C@H](C)C[C@@H]3C)n1)[C@H](CC(C)(C)C)CO2 [Compound 1728] | 
 |  | +++ (+++ is >60+) | COC[C@@H]1CCN1c1cncc(CN2C(=O)c3cccc(c3)S(=O)(=O)Nc3nc(cc(-c4c(C)cccc4C)n3)OC[C@H]2CC(C)(C)F)n1 [Compound 1802] | 
 |  | +++ (+++ is >60+) | Cc1cccc(C)c1-c1cc2nc(n1)NS(=O)(=O)c1cccc(c1)C(=O)N(Cc1cncc(N3CC[C@H]3C)n1)[C@H](CC(C)(C)F)CO2 [Compound 1801] | 
